Experimental data from patent US20210106566A1, “PHARMACEUTICAL COMPOSITION FOR TREATING AND/OR PREVENTING PERIPHERAL NEUROPATHY OR SPINAL CORD INJURY” (NATIONAL UNIVERSITY CORPORATION NAGOYA UNIVERSITY, priority 2015, published 2021).

Experiments:
[1] = system: mouse sciatic nerve autologous transplantation model; experiment: Mouse sciatic nerve autologous transplantation model: tibialis anterior muscle cross sections; type: in vivo; conditions: 30 mg/kg/day, 8 weeks after surgery
Description: Adult male C57BL/6J mice (8 weeks old; 19.5-22.0 g) were purchased from Charles River. The mice were anesthetized with isoflurane and underwent gluteal muscle incision under a sterile condition to expose the sciatic nerve in the left leg. The sciatic nerve was cut at the following two sites (1) and (2): (1) the site 3 mm distal to the first bifurcation of biceps femoris (hereinafter referred to as proximal transection site) (2) the site 3 mm distal to the proximal transection site (hereinafter referred to as distal transection site) The excised nerve segment with a length of 3 mm was confirmed to be completely cut at the two sites. The perineurium was sutured with nylon thread (10-0 black) at the proximal transection site and the distal transection site under a microscope. The remaining thread was used as a marker for finding the nerve transection site in the sacrifice of the mice. In order to reduce DMSO toxicity, a solution of 60 mg/mL zonisamide in 100% DMSO was prepared and the solution was diluted in olive oil to give a solution of 3 mg/mL zonisamide in 5% DMSO. […] Myelin sheath formation in the sciatic nerve was analyzed in six mice in each group. […] The number and area of myelinated axons in the sciatic nerve were manually measured using ImageJ software in a blinded fashion. […]

[2] = system: Bdnf, Ngf, Ntf4, Ntrk1, Ntrk2, Map2, Mapt, and Gap43; experiment: Severely crushed spinal cord model mice: mRNA in spinal cord segments; type: in vivo, mouse; conditions: spinal cord segment distal to the damaged area, 28 days after surgery, versus control group
Description: Severely crushed spinal cord model mice were produced according to the “Method of producing severely crushed spinal cord model mice” as described in Example 8. Spinal cords were isolated from four mice in the zonisamide administration group and four mice in the control group 28 days after surgery and the segment of the damaged area with a length of 5 mm and the segment with a length of 5 mm distal to the damaged area were collected (FIG. 16). Total RNA was isolated using Trizol (Thermo Fisher Scientific) from each spinal cord segment with a length of 5 mm. Single-stranded cDNA was synthesized using ReverTra Ace (Toyobo). The mRNA expression levels of neurotrophic factors, Bdnf, Ngf, Ntf4, Ntrk1, Ntrk2, Map2, Mapt, and Gap43 were quantified using LightCycler 480 Real-Time PCR (Roche) and SYBR Green (Takara) (FIGS. 17, 18, 19, 20, 21, 22, 23, and 24). The mRNA levels were normalized with the expression level of GAPDH.

primary motor neurons = experiment: Time-lapse imaging of axonal growth; type: cell-based, mouse
Method: Primary cultured motor neurons were seeded in a 96-well plate at 6.0×10^3 cells/well in Sumilon neuron culture medium to induce neurite outgrowth. Phase-contrast images were taken every 8 hours for 3 days on IncuCyte ZOOM Live Cell Imaging System (Essen Bioscience). The neurite length was automatically analyzed with NeuroTrack software (IncuCyte).

[3] = system: Bdnf, Ngf, Ntf4, Ntrk1, Ntrk2, Map2, Mapt, and Gap43; experiment: Real-time RT-PCR of genes associated with neurite outgrowth in primary motor neurons; type: cell-based, mouse
Description: Total RNA was isolated, using Trizol (Thermo Fisher Scientific), from primary motor neurons cultured with 0, 1, or 10 μmol/L zonisamide. Similarly, total RNA was isolated from sciatic nerve segments with a length of 3 mm or from tibialis anterior muscle. Single-stranded cDNA was synthesized using ReverTra Ace (Toyobo). The mRNA expression levels of Bdnf, Ngf, Ntf4, Ntrk1, Ntrk2, Map2, Mapt, and Gap43 were quantified using LightCycler 480 Real-Time PCR (Roche) and SYBR Green (Takara). The mRNA levels were normalized with the expression level of Gapdh.

[4] = 2 and 3 days after zonisamide addition

## NS(=O)(=O)Cc1noc2ccccc12 [Zonisamide, 3-sulfamoylmethyl-1,2-benzisoxazole]
[1]
  denervation atrophy of tibialis anterior muscle (cross-sectional area of muscle fibers): promoted recovery from denervation atrophy
[2]
  expression level of MAP2 gene: significantly increased
  expression level of NGF: seemed to be increased
  expression level of Tau gene: significantly increased
Primary motor neurons; forty hours after zonisamide administration, FIG. 3
  neurite outgrowth effect, time-lapse imaging: neurite outgrowth effect was observed
Primary motor neurons; throughout the observation period (3 days)
  neurite outgrowth effect, 10 μmol/L versus 1 μmol/L: higher in the 10 μmol/L zonisamide administration group than in the 1 μmol/L zonisamide administration group
[3]
  mRNA level of GAP43: not increased until day 3
  mRNA level of MAP2: not increased until day 3
  mRNA level of Mapt: not increased until day 3
  mRNA level of Ntrk1: increased
  mRNA level of Ntrk2: increased
[3]; [4]
  mRNA level of BDNF: increased
  mRNA level of NGF: increased
  mRNA level of NTF4: increased
